Test results from patent US10494363B2, “Non-steroidal glucocorticoid receptor modulators for local drug delivery” (LEO PHARMA A/S, priority 2015, dated 2019).

Legend:
[1] = tested on: TNF alpha release from human PBMCs; assay: Inhibition of TNF alpha release from human PBMCs; format: cell-based; settings: PBMC, LPS 1 μg/ml, 18 hours, AlphaLISA
Protocol: PBMC were isolated from fresh buffy coats by density centrifugation using lymphoprep (Medinor AB, cat no 1019818) tubes. Isolated PBMCs were washed in assay medium (RPMI1640 with 25 mM HEPES, 1% pen/strep, 200 mM L glutamine and 10% Foetal calf serum). Surplus PBMCs were frozen in medium containing extra 10% foetal calf serum and 5% DMSO. On the assay day, fresh cells or cryopreserved cells after thawing were washed in serum free medium (RPMI1640 with 25 mM HEPES, 1% pen/strep, 200 mM L glutamine and 0.5% human serum albumin) and counted, in order to determine the fraction of living cells (generally >95%).
Test compounds were diluted in DMSO over seven orders of magnitude, further diluted in serum-free medium and distributed into wells of 384 well tissue culture plates. LPS was added to a final concentration of 1 μg/ml to the cells. Immediately thereafter titrated test compounds were added and incubated for 18 hours at 37° C.
The level of TNF-a in the culture supernatant was quantitated by AlphaLISA (Perkin Elmer). 2-(3,5-dichloro-4-pyridinyl)-1-(7-methoxyspiro[1,3-benzodioxole-2,1′-cyclopentan]-4-yl)-ethanone (CAS 185406-34-2) at 100×IC50 was used to define the assay window.
Data were processed by sigmoidal curve fitting. EC50 and Emax were determined from the curve fits.

[2] = target: T1, glucocorticoid receptor (GR), recombinant full-length receptor protein (Homo sapiens, UniProt P04150); assay: Glucocorticoid receptor binding assay (fluorescence polarization kit); settings: 4 nM receptor, 2.5 nM Fluormone GS1 tracer, 2h room temperature, read-out: GR binding ABS IC50
T1 construct: 4 nM recombinant, full-length receptor protein was incubated with increasing concentrations of GR ligand; purchased Life Technologies A-15897
T1 sequence (P04150 1-777): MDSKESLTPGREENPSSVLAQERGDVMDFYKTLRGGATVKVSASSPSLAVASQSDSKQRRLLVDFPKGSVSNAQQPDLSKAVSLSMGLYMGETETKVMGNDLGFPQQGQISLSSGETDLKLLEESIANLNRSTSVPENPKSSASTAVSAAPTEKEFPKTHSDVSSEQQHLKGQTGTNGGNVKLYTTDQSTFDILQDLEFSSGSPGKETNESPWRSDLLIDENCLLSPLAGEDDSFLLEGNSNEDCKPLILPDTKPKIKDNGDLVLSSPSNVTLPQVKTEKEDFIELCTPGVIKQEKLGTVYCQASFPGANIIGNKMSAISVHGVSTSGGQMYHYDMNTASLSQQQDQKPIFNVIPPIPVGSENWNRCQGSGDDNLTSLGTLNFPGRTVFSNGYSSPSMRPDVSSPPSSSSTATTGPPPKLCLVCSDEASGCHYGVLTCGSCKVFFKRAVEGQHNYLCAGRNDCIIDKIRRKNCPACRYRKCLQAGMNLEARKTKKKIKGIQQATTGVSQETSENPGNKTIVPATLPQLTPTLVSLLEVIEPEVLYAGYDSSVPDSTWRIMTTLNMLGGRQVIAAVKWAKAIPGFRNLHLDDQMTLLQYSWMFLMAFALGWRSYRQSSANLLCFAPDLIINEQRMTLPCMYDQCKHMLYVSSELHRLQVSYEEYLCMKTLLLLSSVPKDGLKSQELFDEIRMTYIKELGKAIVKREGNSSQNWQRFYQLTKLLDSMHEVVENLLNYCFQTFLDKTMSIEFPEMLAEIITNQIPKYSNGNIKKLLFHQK
Protocol: Test compounds were diluted in DMSO over seven orders of magnitude, further diluted in assay buffer and distributed into 384-well plates. The sensitivity limit of this assay was 2-4 nM.
Data were processed by sigmoidal curve fitting.
Absolute (Abs) IC50 and Emax were determined from the curve fits.

SMILES: Cc1ccc([C@@H](Oc2ccc(C(=O)N[C@H]3CCCN(C(=O)[C@@H]4CCC(=O)O4)C3)nc2)[C@H](C)NC(=O)C(F)(F)F)cc1 [Compound 64, N-[(3S)-1-[(2S)-5-oxotetrahydrofuran-2-carbonyl]-3-piperidyl]-5-[(1R,2S)-1-(p-tolyl)-2-[(2,2,2-trifluoroacetyl)amino]propoxy]pyridine-2-carboxamide]
- EC50 [1]: < 100 nM

SMILES: Cc1ccc([C@H](Oc2ccc(C(=O)N[C@H]3CCCN(C(=O)[C@H]4COC(=O)C4)C3)nc2)[C@H](C)NC(=O)C(F)(F)F)cc1 [Compound 81, N-[(3S)-1-[(3R)-5-oxotetrahydrofuran-3-carbonyl]-3-piperidyl]-5-[(1S,2S)-1-(p-tolyl)-2-[(2,2,2-trifluoroacetyl)amino]propoxy]pyridine-2-carboxamide]
- EC50 [1]: < 100 nM

SMILES: C[C@H](NC(=O)CO)[C@H](Oc1ccc(C(=O)N[C@H]2CCCN(C(=O)[C@H]3COC(=O)C3)C2)nc1)c1ccc(C2CC2)cc1 [Compound 21, 5-[(1R,2S)-1-(4-cyclopropylphenyl)-2-[(2-hydroxyacetyl)amino]propoxy]-N-[(3S)-1-[(3R)-5-oxotetrahydrofuran-3-carbonyl]-3-piperidyl]pyridine-2-carboxamide]
- IC50 [2]: < 100 nM
- EC50 [1]: < 100 nM

SMILES: C[C@H](NC(=O)[C@@H]1CCCO1)[C@H](Oc1ccc(C(=O)O[C@H]2CCCN(C(=O)[C@H]3COC(=O)C3)C2)cc1)c1ccc(C2CC2)cc1 [Compound 78, [(3S)-1-[(3R)-5-oxotetrahydrofuran-3-carbonyl]-3-piperidyl] 4-[(1R,2S)-1-(4-cyclopropylphenyl)-2-[[(2S)-tetra hydrofuran-2-carbonyl]amino]propoxy]benzoate]
- IC50 [2]: < 100 nM
- EC50 [1]: < 100 nM

SMILES: C[C@H](NC(=O)C1CCCO1)[C@H](Oc1ccc(C(=O)O[C@H]2CCCN(C(=O)C3COC(=O)C3)C2)cc1)c1ccc(C2CC2)cc1 (stereo in doubt) [Compound 79, [(3S)-1-[(3R)-5-oxotetrahydrofuran-3-carbonyl]-3-piperidyl] 4-[(1R,2S)-1-(4-cyclopropylphenyl)-2-[[(2R)-tetrahydrofuran-2-carbonyl]amino]propoxy]benzoate]
- IC50 [2]: < 100 nM
- EC50 [1]: < 100 nM

SMILES: Cc1ccc([C@@H](Oc2ccc(C(=O)N[C@H]3CCCN(C(=O)N[C@H]4COC(=O)C4)C3)nc2)[C@H](C)NC(=O)C(F)(F)F)cc1 [Compound 72, N-[(3S)-1-[[(3R)-5-oxotetrahydrofuran-3-yl]carbamoyl]-3-piperidyl]-5-[(1R,2S)-1-(p-tolyl)-2-[(2,2,2-trifluoroacetyl)amino]propoxy]pyridine-2-carboxamide]
- IC50 [2]: < 100 nM
- EC50 [1]: 100 to 300 nM

SMILES: C[C@H](NC(=O)c1cncs1)[C@H](Oc1ccc(C(=O)O[C@H]2CCCN(C(=O)[C@H]3COC(=O)C3)C2)cc1)c1ccc(C2CC2)cc1 [Compound 27, [(3S)-1-[(3R)-5-oxotetrahydrofuran-3-carbonyl]-3-piperidyl] 4-[(1R,2S)-1-(4-cyclopropylphenyl)-2-(thiazole-5-carbonylamino)propoxy]benzoate]
- IC50 [2]: < 100 nM
- EC50 [1]: < 100 nM

SMILES: Cc1ccc([C@@H](Oc2ccc(C(=O)N[C@@H]3CCCN(C(=O)[C@H]4CCC(=O)O4)C3)nc2)[C@H](C)NC(=O)C(F)(F)F)cc1 [Compound 62, N-[(3R)-1-[(2R)-5-oxotetrahydrofuran-2-carbonyl]-3-piperidyl]-5-[(1R,2S)-1-(p-tolyl)-2-[(2,2,2-trifluoroacetyl)amino]propoxy]pyridine-2-carboxamide]
- EC50 [1]: < 100 nM

SMILES: Cc1ccc([C@@H](Oc2ccc(C(=O)N[C@@H]3CCN(C(=O)[C@H]4COC(=O)C4)C3)nc2)[C@H](C)NC(=O)C(F)(F)F)cc1 [Compound 65, N-[(3R)-1-[(3R)-5-oxotetrahydrofuran-3-carbonyl]pyrrolidin-3-yl]-5-[(1R,2S)-1-(p-tolyl)-2-[(2,2,2-trifluoroacetyl)amino]propoxy]pyridine-2-carboxamide]
- IC50 [2]: 100 to 300 nM
- EC50 [1]: < 100 nM

SMILES: C[C@@H]1C[C@H]2[C@@H]3CCC4=CC(=O)C=C[C@]4(C)[C@@]3(F)[C@@H](O)C[C@]2(C)[C@@]1(O)C(=O)CO [Dexamethasone, reference compound]
- EC50 [1]: < 100 nM

SMILES: C[C@H](NC(=O)C(F)(F)F)[C@H](Oc1ccc(C(=O)N[C@H]2CCCN(C(=O)[C@H]3COC(=O)C3)C2)nc1)c1ccc(Br)cc1 [Compound 67, 5-[(1R,2S)-1-(4-bromophenyl)-2-[(2,2,2-trifluoroacetyl)amino]propoxy]-N-[(3S)-1-[(3R)-5-oxotetrahydrofuran-3-carbonyl]-3-piperidyl]pyridine-2-carboxamide]
- IC50 [2]: < 100 nM
- EC50 [1]: < 100 nM

SMILES: C[C@H](NC(=O)[C@H]1CCCO1)[C@H](Oc1ccc(C(=O)O[C@H]2CCCN(C(=O)[C@@H]3COC(=O)C3)C2)cc1)c1ccc(C2CC2)cc1 [Compound 77, [(3S)-1-[(3S)-5-oxotetrahydrofuran-3-carbonyl]-3-piperidyl] 4-[(1R,2S)-1-(4-cyclopropylphenyl)-2-[[(2R)-tetrahydrofuran-2-carbonyl]amino]propoxy]benzoate]
- IC50 [2]: < 100 nM
- EC50 [1]: < 100 nM

SMILES: Cc1ccc([C@@H](Oc2ccc(C(=O)N[C@H]3CCCN(C(=O)[C@@H]4COC(=O)C4)C3)nc2)[C@H](C)NC(=O)C(F)(F)F)cc1 [Compound 63, N-[(3S)-1-[(3S)-5-oxotetrahydrofuran-3-carbonyl]-3-piperidyl]-5-[(1R,2S)-1-(p-tolyl)-2-[(2,2,2-trifluoroacetyl)amino]propoxy]pyridine-2-carboxamide]
- EC50 [1]: < 100 nM

SMILES: Cc1ccc([C@@H](Oc2ccc(C(=O)N[C@@H]3CCCN(C(=O)[C@@H]4CCC(=O)O4)C3)nc2)[C@H](C)NC(=O)C(F)(F)F)cc1 [Compound 61, N-[(3R)-1-[(2S)-5-oxotetrahydrofuran-2-carbonyl]-3-piperidyl]-5-[(1R,2S)-1-(p-tolyl)-2-[(2,2,2-trifluoroacetyl)amino]propoxy]pyridine-2-carboxamide]
- EC50 [1]: 100 to 300 nM

SMILES: Cc1ccc([C@@H](Oc2ccc(C(=O)N[C@@H]3CCCN(C(=O)[C@@H]4COC(=O)C4)C3)nc2)[C@H](C)NC(=O)C(F)(F)F)cc1 [Compound 60, N-[(3R)-1-[(3S)-5-oxotetrahydrofuran-3-carbonyl]-3-piperidyl]-5-[(1R,2S)-1-(p-tolyl)-2-[(2,2,2-trifluoroacetyl)amino]propoxy]pyridine-2-carboxamide]
- EC50 [1]: < 100 nM

SMILES: Cc1ccc([C@@H](Oc2ccc(C(=O)O[C@H]3CCCN(C(=O)[C@H]4COC(=O)C4)C3)cc2)[C@H](C)NC(=O)C(F)(F)F)cc1 [Compound 70, [(3S)-1-[(3R)-5-oxotetrahydrofuran-3-carbonyl]-3-piperidyl] 4-[(1R,2S)-1-(p-tolyl)-2-[(2,2,2-trifluoroacetyl)amino]propoxy]benzoate]
- EC50 [1]: < 100 nM

SMILES: Cc1ccc([C@H](Oc2ccc(C(=O)N[C@H]3CCCN(C(=O)[C@@H]4COC(=O)C4)C3)nc2)[C@H](C)NC(=O)C(F)(F)F)cc1 [Compound 80, N-[(3S)-1-[(3S)-5-oxotetrahydrofuran-3-carbonyl]-3-piperidyl]-5-[(1S,2S)-1-(p-tolyl)-2-[(2,2,2-trifluoroacetyl)amino]propoxy]pyridine-2-carboxamide]
- EC50 [1]: < 100 nM

SMILES: Cc1ccc([C@@H](Oc2ccc(C(=O)N[C@H]3CCCN(C(=O)O[C@H]4CCOC4=O)C3)nc2)[C@H](C)NC(=O)C(F)(F)F)cc1 [Compound 73, [(3S)-2-oxotetrahydrofuran-3-yl] (3S)-3-[[5-[(1R,2S)-1-(p-tolyl)-2-[(2,2,2-trifluoroacetyl)amino]propoxy]pyridine-2-carbonyl]amino]piperidine-1-carboxylate]
- IC50 [2]: < 100 nM
